In patent US4311698A, “Aminoacid derivatives of cephalosporin compounds” (priority 1980, dated 1982):
Converted amounts (≈) assume the structure as drawn.

Columns and labels:
Assay type in all cases: cell-based
E. Coli. Vogel = assay: In vitro minimal inhibitory concentration, E. Coli. Vogel; conditions: Escherichia coli
E. Coli. Brig = assay: In vitro minimal inhibitory concentration, E. Coli. Brig; conditions: Escherichia coli
Staph S 18713 = assay: In vitro minimal inhibitory concentration, Staph S 18713
Serr. Mar. IMM 16 = assay: In vitro minimal inhibitory concentration, Serr. Mar. IMM 16
Klebs. Pneum. MGH 2 = assay: In vitro minimal inhibitory concentration, Klebs. Pneum. MGH 2
Strep. fec. MGH 2 = assay: In vitro minimal inhibitory concentration, Strep. fec. MGH 2
Entero Cloac. IM 11 = assay: In vitro minimal inhibitory concentration, Entero Cloac. IM 11
Pseudomonas BRK 12-4-4 = assay: In vitro minimal inhibitory concentration, Pseudomonas BRK 12-4-4; conditions: BRK1244
Pseudomonas #28 = assay: In vitro minimal inhibitory concentration, Pseudomonas #28; conditions: Pseudomonas #28; in vitro; read-out: Minimal Inhibitory Concentration
Staph UC76 = assay: In vitro minimal inhibitory concentration, Staph UC76
Pseudomonas UI 18 = assay: In vitro minimal inhibitory concentration, Pseudomonas UI 18; conditions: UI18
Prot Vulg. = assay: In vitro minimal inhibitory concentration, Prot Vulg.

| SMILES | MIC (E. Coli. Vogel) [µg/mL] | MIC (E. Coli. Brig) [µg/mL] | MIC (Staph S 18713) [µg/mL] | MIC (Serr. Mar. IMM 16) [µg/mL] | MIC (Klebs. Pneum. MGH 2) [µg/mL] | MIC (Strep. fec. MGH 2) [µg/mL] | MIC (Entero Cloac. IM 11) [µg/mL] | MIC (Pseudomonas BRK 12-4-4) [µg/mL] | MIC (Pseudomonas #28) [µg/mL] | MIC (Staph UC76) [µg/mL] | MIC (Pseudomonas UI 18) [µg/mL] | MIC (Prot Vulg.) [µg/mL] |
| --- | --- | --- | --- | --- | --- | --- | --- | --- | --- | --- | --- | --- |
| CC(=O)N1CCC[C@H]1C(=O)Nc1ccc(-c2ccc(C(=O)N[C@@H](C(=O)NC3C(=O)N4C(C(=O)O)=C(CSc5nnnn5C)CSC34)c3ccccc3)c(=O)[nH]2)cc1 (stereo partly drawn) [Example 2, N-[6-[4-(N-Acetyl-L-prolylamino)phenyl]-1,2-dihydro-2-oxonicotinyl]-7-[D-2-amino-2-phenylacetamido]-3-[[(1-methyl-1H-tetrazol-5-yl)thio]methyl]-3-cephem-4-carboxylic acid] | 1.6 (≈ 1.97 µM) | 6.3 (≈ 7.75 µM) | 3.1 (≈ 3.81 µM) | 12.5 (≈ 15.4 µM) | 1.6 (≈ 1.97 µM) | 25 (≈ 30.8 µM) | 6.3 (≈ 7.75 µM) | 25 (≈ 30.8 µM) | 12.5 (≈ 15.4 µM) | 0.8 (≈ 0.984 µM) | 12.5 (≈ 15.4 µM) | 25 (≈ 30.8 µM) |
| CC(=O)NCCCCC(NC(C)=O)C(=O)Nc1ccc(-c2ccc(C(=O)N[C@@H](C(=O)NC3C(=O)N4C(C(=O)O)=C(COC(C)=O)CSC34)c3ccccc3)c(=O)[nH]2)cc1 (mixture of isomers) [Example 27, N-[6-[4-(N,N'-Diacetyl-DL-lysylamino)phenyl]-1,2-dihydro-2-oxonicotinyl]-7-[D-2-amino-2-phenylacetamido]-3-acetoxymethyl-3-cephem-4-carboxylic acid] | 3.1 | 25 | 12.5 | > 50 | 6.3 | 25 | 12.5 | 12.5 | 3.1 | 1.6 | 6.3 | 50 |
| CC(=O)OCC1=C(C(=O)O)N2C(=O)C(NC(=O)[C@H](NC(=O)c3ccc(-c4ccc(NC(=O)[C@@H]5CCC(=O)N5)cc4)[nH]c3=O)c3ccccc3)C2SC1 (stereo partly drawn) [Example 6, N-[6-[4-(L-Pyroglutamylamino)phenyl]-1,2-dihydro-2-oxonicotinyl]-7-[D-2-amino-2-phenylacetamido]-3-acetoxymethyl-3-cephem-4-carboxylic acid] | 3.1 (≈ 4.25 µM) | 25 (≈ 34.3 µM) | 3.1 (≈ 4.25 µM) | 50 (≈ 68.6 µM) | 6.3 (≈ 8.65 µM) | 25 (≈ 34.3 µM) | 12.5 (≈ 17.2 µM) | 12.5 (≈ 17.2 µM) | 12.5 (≈ 17.2 µM) | 0.8 (≈ 1.1 µM) | 6.3 (≈ 8.65 µM) | 25 (≈ 34.3 µM) |
| CC(=O)NC(C)C(=O)Nc1ccc(-c2ccc(C(=O)N[C@@H](C(=O)NC3C(=O)N4C(C(=O)O)=C(CSc5nnnn5C)CSC34)c3ccccc3)c(=O)[nH]2)cc1 (mixture of isomers) [Example 18, N-[6-[4-(N-Acetyl-DL-alanylamino)phenyl]-1,2-dihydro-3-oxonicotinyl]-7-[D-2-amino-2-phenylacetamido]-3-[[(1-methyl-1H-tetrazol-5-yl)thio]methyl]-3-cephem-4-carboxylic acid] | 0.4 | 3.1 | 3.1 | 12.5 | 0.8 | 25 | 6.3 | 12.5 | 6.3 | 0.4 | 6.3 | 25 |
| CC(=O)N[C@H](C)C(=O)Nc1ccc(-c2ccc(C(=O)N[C@@H](C(=O)NC3C(=O)N4C(C(=O)O)=C(COC(C)=O)CSC34)c3ccc(O)cc3)c(=O)[nH]2)cc1 (stereo partly drawn) [Example 8, N-[6-[4-(N-Acetyl-D-alanylamino)phenyl]-1,2-dihydro-2-oxonicotinyl]-7-[D-2-amino-2-(4-hydroxyphenyl)acetamido]-3-acetoxymethyl-3-cephem-4-carboxylic acid] | 3.1 (≈ 4.15 µM) | 12.5 (≈ 16.7 µM) | 6.3 (≈ 8.44 µM) | 50 (≈ 67 µM) | 6.3 (≈ 8.44 µM) | 12.5 (≈ 16.7 µM) | 12.5 (≈ 16.7 µM) | 6.3 (≈ 8.44 µM) | 1.6 (≈ 2.14 µM) | 1.6 (≈ 2.14 µM) | 3.1 (≈ 4.15 µM) | 12.5 (≈ 16.7 µM) |
| CC(=O)N[C@H](C)C(=O)Nc1ccc(-c2ccc(C(=O)N[C@@H](C(=O)NC3C(=O)N4C(C(=O)O)=C(CSc5nnnn5CC(=O)O)CSC34)c3ccccc3)c(=O)[nH]2)cc1 (stereo partly drawn) [Example 1, N-[6-[4-(N-Acetyl-D-alanylamino)phenyl]-1,2-dihydro-2-oxonicotinyl]-7-[D-2-amino-2-phenylacetamido]-3-[[(1-carboxymethyl-1H-tetrazol-5-yl)thio]methyl]-3-cephem-4-carboxylic acid] | 0.4 (≈ 0.481 µM) | 6.3 (≈ 7.58 µM) | 12.5 (≈ 15 µM) | 12.5 (≈ 15 µM) | 3.1 (≈ 3.73 µM) | > 50 | 3.1 (≈ 3.73 µM) | 12.5 (≈ 15 µM) | 6.3 (≈ 7.58 µM) | 3.1 (≈ 3.73 µM) | 6.3 (≈ 7.58 µM) | 3.1 (≈ 3.73 µM) |
| CC(=O)N[C@H](C)C(=O)Nc1ccc(-c2ccc(C(=O)N[C@@H](C(=O)NC3C(=O)N4C(C(=O)O)=C(CSc5nnnn5C)CSC34)c3ccccc3)c(=O)[nH]2)cc1 (stereo partly drawn) [Example 19, N-[6-[4-(N-Acetyl-D-alanylamino)phenyl]-1,2-dihydro-2-oxonicotinyl]-7-[D-2-amino-2-phenylacetamido]-3-[[(1-methyl-1H-tetrazol-5-yl)thio]methyl]-3-cephem-4-carboxylic acid] | 0.8 (≈ 1.02 µM) | 6.3 (≈ 8.01 µM) | 6.3 (≈ 8.01 µM) | 25 (≈ 31.8 µM) | 3.1 (≈ 3.94 µM) | 25 (≈ 31.8 µM) | 12.5 (≈ 15.9 µM) | 12.5 (≈ 15.9 µM) | 6.3 (≈ 8.01 µM) | 0.8 (≈ 1.02 µM) | 6.3 (≈ 8.01 µM) | 12.5 (≈ 15.9 µM) |
| CC(=O)OCC1=C(C(=O)O)N2C(=O)C(NC(=O)[C@H](NC(=O)c3ccc(-c4ccc(NC(=O)[C@@H]5CC(O)CN5C(C)=O)cc4)[nH]c3=O)c3ccccc3)C2SC1 (stereo partly drawn) [Example 31, N-[6-[4-(N-Acetyl-4-hydroxy-L-prolylamino)phenyl]-1,2-dihydro-2-oxonicotinyl]-7-[D-2-amino-2-phenylacetamido]-3-acetoxymethyl-3-cephem-4-carboxylic acid] | 3.1 (≈ 4.01 µM) | 12.5 (≈ 16.2 µM) | 25 (≈ 32.4 µM) | > 50 | 6.3 (≈ 8.15 µM) | 25 (≈ 32.4 µM) | 12.5 (≈ 16.2 µM) | 12.5 (≈ 16.2 µM) | 12.5 (≈ 16.2 µM) | 0.8 (≈ 1.04 µM) | 12.5 (≈ 16.2 µM) | 25 (≈ 32.4 µM) |
| CC(=O)N[C@@H](C)C(=O)Nc1ccc(-c2ccc(C(=O)N[C@@H](C(=O)NC3C(=O)N4C(C(=O)O)=C(COC(C)=O)CSC34)c3ccccc3)c(=O)[nH]2)cc1 (stereo partly drawn) [Example 5, N-[6-[4-(N-Acetyl-L-alanylamino)phenyl]-1,2-dihydro-2-oxonicotinyl]-6-[D-2-amino-2-phenylacetamido]-3-acetoxymethyl-3-cephem-4-carboxylic acid] | 1.6 (≈ 2.19 µM) | 12.5 (≈ 17.1 µM) | 1.6 (≈ 2.19 µM) | 50 (≈ 68.4 µM) | 12.5 (≈ 17.1 µM) | 25 (≈ 34.2 µM) | 12.5 (≈ 17.1 µM) | 12.5 (≈ 17.1 µM) | 6.3 (≈ 8.62 µM) | 0.8 (≈ 1.09 µM) | 6.3 (≈ 8.62 µM) | 25 (≈ 34.2 µM) |
| CC(=O)N[C@H](C)C(=O)Nc1ccc(-c2ccc(C(=O)N[C@@H](C(=O)NC3C(=O)N4C(C(=O)O)=C(CSc5nnnn5CCC(=O)O)CSC34)c3ccccc3)c(=O)[nH]2)cc1 (stereo partly drawn) [Example 41] | 0.8 (≈ 0.947 µM) | 6.3 (≈ 7.46 µM) | 12.5 (≈ 14.8 µM) | 12.5 (≈ 14.8 µM) | 1.6 (≈ 1.89 µM) | 50 (≈ 59.2 µM) | 6.3 (≈ 7.46 µM) | 12.5 (≈ 14.8 µM) | 6.3 (≈ 7.46 µM) | 3.1 (≈ 3.67 µM) | 12.5 (≈ 14.8 µM) | 3.1 (≈ 3.67 µM) |
